System: Nucleic Acid
Test: Inhibitory activity against TatTAR RNA interaction in human cells by Tat-dependent HIV-1 long terminal repeats (LTR)-driven chloramphenicol acetyltransferase assay at 3 uM concentration; decreased from 69.5 to 44.2
Type: cell-based
Set-up: unit not given here

SMILES | Activity
N=C(N)NCCCC(=O)NCC1OC(OC2OC(CNC(=O)CCCNC(=N)N)C(O)C(O)C2O)C(O)C(O)C1O (centres undefined) | 44.2
N=C(N)NCC1OC(OC2OC(CNC(=N)N)C(O)C(O)C2O)C(O)C(O)C1O (centres undefined) | 44.2
N=C(N)NCC(=O)NCC1OC(OC2OC(CNC(=O)CNC(=N)N)C(O)C(O)C2O)C(O)C(O)C1O (centres undefined) | 44.2
NC(N)=NCCCC(N)C(=O)NCC1OC(OC2OC(CNC(=O)C(N)CCCN=C(N)N)C(O)C(O)C2O)C(O)C(O)C1O (centres undefined) | 44.2
